From PubChem BioAssay (NCI)
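These data come from cells grown in 96-well plates and exposed to compound for 48 hours at five concentrations. TGI marks complete inhibition of growth.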 Where a SMILES comes first, the peptide text is derived from it. The star is where a group is joined. Boc = CC(C)(C)OC(=O)*; OSu = O=C1CCC(=O)N1O*

Assays:
Assay in all cases: growth of human tumour cells (NCI), 48 h
SF-268 CNS = test system: SF-268 CNS
SK-MEL-2 melanoma = test system: SK-MEL-2 melanoma
ACHN renal = test system: ACHN renal
BT-549 breast = test system: BT-549 breast
RPMI-8226 leukemia = test system: RPMI-8226 leukemia
OVCAR-5 ovarian = test system: OVCAR-5 ovarian
IGROV1 ovarian = test system: IGROV1 ovarian
OVCAR-3 ovarian = test system: OVCAR-3 ovarian
HT29 colon = test system: HT29 colon
NCI-H226 lung = test system: NCI-H226 lung
LOX IMVI melanoma = test system: LOX IMVI melanoma
T-47D breast = test system: T-47D breast

SMILES | TGI (SF-268 CNS) [µM] | TGI (SK-MEL-2 melanoma) [µM] | TGI (ACHN renal) [µM] | TGI (BT-549 breast) [µM] | TGI (RPMI-8226 leukemia) [µM] | TGI (OVCAR-5 ovarian) [µM] | TGI (IGROV1 ovarian) [µM] | TGI (OVCAR-3 ovarian) [µM] | TGI (HT29 colon) [µM] | TGI (NCI-H226 lung) [µM] | TGI (LOX IMVI melanoma) [µM] | TGI (T-47D breast) [µM]
CCCN=C1CC(C)Nc2ccccc2N1 (stereo unspecified) | > 100 | > 100 | > 100 | > 100 | > 100 | > 100 | > 100 | > 100 | > 100 | > 100 |  | 
C[N+](C)(C)CC(=O)N/N=c1\cc(C(=O)Nc2ccc(N=O)cc2C#N)oc2cc(O)ccc12 | > 100 | > 100 | > 100 |  |  | > 100 | > 100 | > 100 | > 100 | > 100 | > 100 | 
N#C/C(=C\NC(=S)Nc1ccc(S(=O)(=O)Nc2ccccn2)cc1)C(N)=O | > 100 | > 100 | > 100 |  | > 100 | > 100 | > 100 | > 100 | > 100 | > 100 | > 100 | 
c1ccc(C[P+]2(c3ccccc3)c3ccccc3-c3ccccc32)cc1 | > 100 |  |  | > 100 | > 100 |  | > 100 | > 100 |  | > 100 | > 100 | 
COc1ccc2c(c1)c1c(n2CCN2CCOCC2)-c2ccccc2CC1 | > 100 | 82.5 | > 100 | > 100 | 64.2 | > 100 | > 100 | > 100 | > 100 | 48.9 |  | > 100
CCOc1ccc(N/C(=C(/C(Cl)=C(/Cl)NCCN)[N+](=O)[O-])n2nnc3ccccc32)cc1 | 34.5 | > 100 | 43.8 | > 100 | > 100 | > 100 |  | 63.3 | > 100 | > 100 |  | > 100
Nc1ccccc1Nc1ccccc1C(=O)[O-].Nc1ccccc1Nc1ccccc1C(=O)[O-].[Cu+2] | > 100 | > 100 | > 100 |  | > 100 | > 100 | > 100 | > 100 | > 100 |  |  | 
O=c1c2c3ccccc3[nH]c2c2cccc3c2n1CCC3 | > 100 |  | > 100 | 91 |  | > 100 | > 100 | > 100 | > 100 | > 100 |  | > 100
Cc1ccc(-c2cc(N)n(-c3nc4c([nH]3)c(=O)n(C)c(=O)n4C)n2)cc1 | 34.5 | 30.8 | 10.7 | 32.9 | > 100 | > 100 | 18.3 | 18.9 | > 100 | 22.8 |  | 23.6
O=C1CC(c2ccco2)C2(C(=O)NC(=O)NC2=O)C(c2ccco2)C1 (stereo unspecified) | > 75 | > 75 | > 75 | > 75 | > 75 | > 75 | > 75 | > 75 | > 75 |  | > 75 | > 75
COC(=O)c1cc(CC(C)C)c2c(c1)[nH]c1ccccc12 | > 100 | > 100 | > 100 |  |  | > 100 | > 100 | > 100 | > 100 | > 100 | > 100 | 
CC1(C)CC2(C)CC1CC2O (stereo unspecified) | > 100 |  |  | > 100 | > 100 | > 100 | > 100 | > 100 | > 100 | > 100 | > 100 | 
COC1O[C@H]2CCN(C(=O)OCc3ccccc3)[C@H]2[C@H]1OCc1ccccc1 (stereo partly specified) | > 100 | > 100 | > 100 |  | > 100 | > 100 | > 100 | > 100 | > 100 | > 100 | > 100 | 
O=C1CC(O)c2c1csc2Br (stereo unspecified) | 88.6 | > 100 | 45.4 | 52.9 | 74.5 | > 100 | 35.9 | 64.4 | > 100 |  | 36.1 | > 100
Cc1ccccc1C1OC1C(=O)c1ccccc1N (stereo unspecified) | > 100 | > 100 | > 100 |  | > 100 | > 100 |  |  | > 100 | > 100 | > 100 | 
CC(C)(C)OC(=O)NC(Cc1ccc(O)cc1)C(=O)NC(CCCCN)C(=O)NC(Cc1ccc(O)cc1)C(=O)NC(CCCCN)C(=O)ON1C(=O)CCC1=O (stereo unspecified) (Boc-YKYK-OSu; configuration not given here) |  | > 100 | > 100 | > 100 | > 100 | > 100 | > 100 |  | > 100 | > 100 |  | > 100
CC12CC(c3ccccc3O1)C(C(=O)Nc1ccc(F)cc1)C(=O)N2 (stereo unspecified) | > 100 | > 100 | > 100 | > 100 | > 100 | > 100 | > 100 | > 100 | > 100 |  | > 100 | > 100
Cc1cc(=O)cc2sc3c(C)cccc3nc1-2 | 26.3 | 43.9 | > 100 |  | 97 | > 100 | 54.9 | 52 | > 100 |  | 39.2 | 
COc1ccc2nc(-c3ccc(OCc4ccccc4)cc3)ccc2c1 | > 100 |  | > 100 |  | > 100 | > 100 | > 100 | > 100 | > 100 | > 100 | > 100 | 
O=C(NS(=O)(=O)Nc1ccc(Cl)cc1)OCc1ccc(Cl)cc1Cl | 20.6 | 90.2 | > 100 | 82.3 | > 100 | 70.3 | 52.8 | 36 | 51.2 |  | 57.3 | 
O=C1CCCN(c2ccccc2)N1 | > 100 | > 100 | > 100 |  | > 100 | > 100 | > 100 | > 100 | > 100 | > 100 | > 100 | 
COc1cc(COC(=O)N[C@H](C(=O)O)C(C)(C)C)c([N+](=O)[O-])cc1OC | > 100 |  | > 100 | > 100 | > 100 | > 100 | > 100 | > 100 | > 100 | > 100 |  | > 100
